Source: patent US11434242B2, “Dopamine-b-hydroxylase inhibitors” (BIAL-PORTELA & Cª, S.A., priority 2017, dated 2022)
Marks after values point to notes of the source that are not given here.

Target: T1, Dopamine beta hydroxylase (Homo sapiens, UniProt P09172)
T1 construct: 125 μl of plasma; tissue Instituto Português do Sangue Transplantação; host or cells: human plasma from healthy donors
T1 sequence (P09172 40-617 limits assumed): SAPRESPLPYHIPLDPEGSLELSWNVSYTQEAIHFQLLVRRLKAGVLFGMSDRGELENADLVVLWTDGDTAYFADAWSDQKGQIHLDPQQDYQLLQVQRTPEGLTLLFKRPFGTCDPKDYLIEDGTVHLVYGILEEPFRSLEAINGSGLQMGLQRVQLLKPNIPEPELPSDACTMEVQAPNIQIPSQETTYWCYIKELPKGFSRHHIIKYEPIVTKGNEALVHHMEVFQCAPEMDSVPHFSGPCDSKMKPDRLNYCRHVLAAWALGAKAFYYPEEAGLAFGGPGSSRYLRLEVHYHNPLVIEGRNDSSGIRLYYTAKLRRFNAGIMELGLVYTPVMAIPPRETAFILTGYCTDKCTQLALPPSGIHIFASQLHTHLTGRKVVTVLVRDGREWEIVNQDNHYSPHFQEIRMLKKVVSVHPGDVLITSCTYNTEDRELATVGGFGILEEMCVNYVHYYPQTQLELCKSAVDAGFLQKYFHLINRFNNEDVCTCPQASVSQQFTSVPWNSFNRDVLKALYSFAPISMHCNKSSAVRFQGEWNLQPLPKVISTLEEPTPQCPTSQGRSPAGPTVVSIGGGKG
Experiment: Dopamine beta hydroxylase activity in human plasma
Format: biochemical
Settings: for Plasma (1 μM), activity in % of control: inhibitor 1 μM
Procedure, shortened: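 Octopamine production from tyramine over 45 min at 37° C, measured photometrically at 330 nm after SCX extraction and periodate oxidation against an octopamine standard curve, indicates plasma DβH activity. Compounds tested at final 10, 100 and 1000 nM in human plasma, pH 5.0 cofactor buffer, 10 min preincubation; results as % of control.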

Question: For Cn1c(CCC(=O)N2CCCC2)c2n(c1=S)C[C@@H](c1c(F)c(F)cc(F)c1F)C2 [Example 261, (R)-3-(2-methyl-6-(2,3,5,6-tetrafluorophenyl)-3-thioxo-2,5,6,7-tetrahydro-3H-pyrrolo[1,2-c]imidazol-1-yl)-1-(pyrrolidin-1-yl)propan-1-one], which “Plasma (0.01 μM), activity in % of control” value (inhibitor 0.01 μM) is on record?
Answer: 86.2 % of control

Question: What about the “Plasma (0.1 μM), activity in % of control” value (inhibitor 0.1 μM) of the same compound?
Answer: 31.8 % of control

Question: Which results are given for Cn1c(CC(=O)N[C@H]2CCOC2)c2n(c1=S)C[C@@]1(c3cc(Br)ccc3F)C[C@@H]21 [Example 308, 2-((5aS,6aR)-5a-(5-bromo-2-fluorophenyl)-2-methyl-3-thioxo-2,3,5,5a,6,6a-hexahydrocyclopropa[3,4]pyrrolo[1,2-c]imidazol-1-yl)-N—((S)-tetrahydrofuran-3-yl)acetamide]?
Answer: Plasma (0.01 μM), activity in % of control (inhibitor 0.01 μM): 64.2 % of control; Plasma (0.1 μM), activity in % of control (inhibitor 0.1 μM): 12.8 % of control

Question: Cn1c(CC(=O)N2CC[C@@H](C#N)C2)c2n(c1=S)C[C@@H](c1c(F)ccc(F)c1F)C2 [Example 390, (R)-1-(2-((R)-2-methyl-3-thioxo-6-(2,3,6-trifluorophenyl)-2,5,6,7-tetrahydro-3H-pyrrolo[1,2-c]imidazol-1-yl)acetyl)pyrrolidine-3-carbonitrile] was tested. Which “Plasma (0.01 μM), activity in % of control” value (inhibitor 0.01 μM) did it give?
Answer: 75.0 % of control

Question: What about the “Plasma (0.1 μM), activity in % of control” value (inhibitor 0.1 μM) of the same compound?
Answer: 52.0 % of control

Question: Cn1c(CC(=O)NCC(F)(F)F)c2n(c1=S)C[C@@H](c1c(F)c(F)cc(F)c1F)C2 [Example 315, (R)-2-(2-methyl-6-(2,3,5,6-tetrafluorophenyl)-3-thioxo-2,5,6,7-tetrahydro-3H-pyrrolo[1,2-c]imidazol-1-yl)-N-(2,2,2-trifluoroethyl)acetamide] was tested. Which “Plasma (0.01 μM), activity in % of control” value (inhibitor 0.01 μM) did it give?
Answer: 67.0 % of control

Question: And the “Plasma (0.01 μM), activity in % of control, re-test (asterisked)” value (inhibitor 0.01 μM, re-tested under the same experimental conditions, asterisked data believed to be correct)?
Answer: 94.0* % of control

Question: What about the “Plasma (0.1 μM), activity in % of control” value (inhibitor 0.1 μM) of the same compound?
Answer: 17.0 % of control

Question: What about the “Plasma (0.1 μM), activity in % of control, re-test (asterisked)” value (inhibitor 0.1 μM, re-tested under the same experimental conditions, asterisked data believed to be correct) of the same compound?
Answer: 53.3* % of control

Question: What does the source list for Cn1c(CC(=O)NC2CCOCC2)c2n(c1=S)C[C@@]1(c3c(F)ccc(Cl)c3F)C[C@@H]21 [Example 423, 2-((5aS,6aR)-5a-(3-chloro-2,6-difluorophenyl)-2-methyl-3-thioxo-2,3,5,5a,6,6a-hexahydrocyclopropa[3,4]pyrrolo[1,2-c]imidazol-1-yl)-N-(tetrahydro-2H-pyran-4-yl)acetamide]?
Answer: Plasma (0.01 μM), activity in % of control (inhibitor 0.01 μM): 18.5 % of control; Plasma (0.1 μM), activity in % of control (inhibitor 0.1 μM): 1.7 % of control

Question: What does the source list for Cn1c(CCC(=O)N2CCC[C@H]2CO)c2n(c1=S)C[C@@H](c1c(F)ccc(F)c1F)C2 [Example 267, 1-((S)-2-(hydroxymethyl)pyrrolidin-1-yl)-3-((R)-2-methyl-3-thioxo-6-(2,3,6-trifluorophenyl)-2,5,6,7-tetrahydro-3H-pyrrolo[1,2-c]imidazol-1-yl)propan-1-one]?
Answer: Plasma (0.01 μM), activity in % of control (inhibitor 0.01 μM): 90.8 % of control; Plasma (0.1 μM), activity in % of control (inhibitor 0.1 μM): 55.8 % of control

Question: Which “Plasma (0.01 μM), activity in % of control” value (inhibitor 0.01 μM) does the source give for CC(C)NC(=O)Cc1c2n(c(=S)n1C)C[C@@]1(c3cc(Cl)ccc3F)C[C@@H]21 [Example 303, 2-((5aS,6aR)-5a-(5-chloro-2-fluorophenyl)-2-methyl-3-thioxo-2,3,5,5a,6,6a-hexahydrocyclopropa[3,4]pyrrolo[1,2-c]imidazol-1-yl)-N-isopropylacetamide] here?
Answer: 79.3 % of control

Question: And the “Plasma (0.1 μM), activity in % of control” value (inhibitor 0.1 μM)?
Answer: 34.7 % of control

Question: Which results are given for O=C(Cc1[nH]c(=S)n2c1C[C@H](c1c(F)ccc(Br)c1F)C2)N1CCS(=O)(=O)CC1 [Example 125, (R)-2-(6-(3-bromo-2,6-difluorophenyl)-3-thioxo-2,5,6,7-tetrahydro-3H-pyrrolo[1,2-c]imidazol-1-yl)-1-(1,1-dioxidothiomorpholino)ethan-1-one]?
Answer: Plasma (0.01 μM), activity in % of control (inhibitor 0.01 μM): 106.5 % of control; Plasma (0.1 μM), activity in % of control (inhibitor 0.1 μM): 43.7 % of control

Question: With CN(C(=O)Cc1[nH]c(=S)n2c1C[C@H](c1c(F)ccc(Br)c1F)C2)C1CCCCC1 [Example 132, (R)-2-(6-(3-bromo-2,6-difluorophenyl)-3-thioxo-2,5,6,7-tetrahydro-3H-pyrrolo[1,2-c]imidazol-1-yl)-N-cyclohexyl-N-methylacetamide] as the compound, how does the “Plasma (0.01 μM), activity in % of control” value (inhibitor 0.01 μM) read?
Answer: 91.9 % of control

Question: What about the “Plasma (0.1 μM), activity in % of control” value (inhibitor 0.1 μM) of the same compound?
Answer: 62.3 % of control

Question: C[C@@H](NC(=O)Cc1[nH]c(=S)n2c1C[C@H](c1c(F)ccc(Br)c1F)C2)C1CCCCC1 [Example 127, 2-((R)-6-(3-bromo-2,6-difluorophenyl)-3-thioxo-2,5,6,7-tetrahydro-3H-pyrrolo[1,2-c]imidazol-1-yl)-N—((R)-1-cyclohexylethyl)acetamide] was tested. Which “Plasma (0.01 μM), activity in % of control” value (inhibitor 0.01 μM) did it give?
Answer: 81.3 % of control

Question: What about the “Plasma (0.1 μM), activity in % of control” value (inhibitor 0.1 μM) of the same compound?
Answer: 83.8 % of control

Question: Which “Plasma (0.01 μM), activity in % of control” value (inhibitor 0.01 μM) does the source give for Cn1c(CC(=O)NC2CCS(=O)(=O)CC2)c2n(c1=S)C[C@@H](c1c(F)ccc(F)c1F)C2 [Example 239, (R)—N-(1,1-dioxidotetrahydro-2H-thiopyran-4-yl)-2-(2-methyl-3-thioxo-6-(2,3,6-trifluorophenyl)-2,5,6,7-tetrahydro-3H-pyrrolo[1,2-c]imidazol-1-yl)acetamide] here?
Answer: 60.1 % of control

Question: What about the “Plasma (0.1 μM), activity in % of control” value (inhibitor 0.1 μM) of the same compound?
Answer: 3.9 % of control

Question: For Cn1c(CC(=O)O)c2n(c1=S)C[C@@]1(c3cc(Br)ccc3F)C[C@@H]21 [Example 275, 2-((5aS,6aR)-5a-(5-bromo-2-fluorophenyl)-2-methyl-3-thioxo-2,3,5,5a,6,6a-hexahydrocyclopropa[3,4]pyrrolo[1,2-c]imidazol-1-yl)acetic acid], which “Plasma (0.01 μM), activity in % of control” value (inhibitor 0.01 μM) is on record?
Answer: 79.0 % of control

Question: What about the “Plasma (0.1 μM), activity in % of control” value (inhibitor 0.1 μM) of the same compound?
Answer: 24.4 % of control

Question: What does the source list for O=C(Cc1[nH]c(=S)n2c1C[C@H](c1c(F)cccc1F)C2)NC1CCCC1 [Example 76, (R)—N-cyclopentyl-2-(6-(2,6-difluorophenyl)-3-thioxo-2,5,6,7-tetrahydro-3H-pyrrolo[1,2-c]imidazol-1-yl)acetamide]?
Answer: Plasma (0.1 μM), activity in % of control (inhibitor 0.1 μM): 65.8 % of control; Plasma (1 μM), activity in % of control: 13.1 % of control

Question: CN(C(=O)Cc1c2n(c(=S)n1C)C[C@@]1(c3cc(Br)ccc3F)C[C@@H]21)[C@@H]1CCOC1 [Example 466, 2-((5aS,6aR)-5a-(5-bromo-2-fluorophenyl)-2-methyl-3-thioxo-2,3,5,5a,6,6a-hexahydrocyclopropa[3,4]pyrrolo[1,2-c]imidazol-1-yl)-N-methyl-N—((R)-tetrahydrofuran-3-yl)acetamide] was tested. Which “Plasma (0.01 μM), activity in % of control” value (inhibitor 0.01 μM) did it give?
Answer: 49.6 % of control

Question: And the “Plasma (0.1 μM), activity in % of control” value (inhibitor 0.1 μM)?
Answer: 6.5 % of control

Question: CS(=O)(=O)CCNCCc1[nH]c(=S)n2c1C[C@H](c1c(F)ccc(Br)c1F)C2 [Example 182, (R)-6-(3-bromo-2,6-difluorophenyl)-1-(2-((2-(methylsulfonyl)ethyl)amino)ethyl)-2,5,6,7-tetrahydro-3H-pyrrolo[1,2-c]imidazole-3-thione] was tested. Which “Plasma (0.01 μM), activity in % of control” value (inhibitor 0.01 μM) did it give?
Answer: 94.6 % of control

Question: What about the “Plasma (0.1 μM), activity in % of control” value (inhibitor 0.1 μM) of the same compound?
Answer: 71.0 % of control

Question: Which results are given for Cl.Cn1c(CCNCC2CCOCC2)c2n(c1=S)C[C@@H](c1c(F)ccc(F)c1F)C2 [Example 477, (R)-2-methyl-1-(2-(((tetrahydro-2H-pyran-4-yl)methyl)amino)ethyl)-6-(2,3,6-trifluorophenyl)-2,5,6,7-tetrahydro-3H-pyrrolo[1,2-c]imidazole-3-thione hydrochloride]?
Answer: Plasma (0.01 μM), activity in % of control (inhibitor 0.01 μM): 84.6 % of control; Plasma (0.1 μM), activity in % of control (inhibitor 0.1 μM): 59.4 % of control

Question: How did the “Plasma (0.1 μM), activity in % of control” value (inhibitor 0.1 μM) turn out when O=C(Cc1[nH]c(=S)n2c1C[C@@H](c1c(F)c(F)cc(F)c1F)C2)N1CCCC1 [Example 105, (S)-1-(pyrrolidin-1-yl)-2-(6-(2,3,5,6-tetrafluorophenyl)-3-thioxo-2,5,6,7-tetrahydro-3H-pyrrolo[1,2-c]imidazol-1-yl)ethan-1-one] was run?
Answer: 74.9 % of control

Question: And the “Plasma (1 μM), activity in % of control” value?
Answer: 22.0 % of control

Question: How did the “Plasma (0.1 μM), activity in % of control” value (inhibitor 0.1 μM) turn out when O=C(Cc1[nH]c(=S)n2c1C[C@H](c1c(F)ccc(Br)c1F)C2)NC1CCOC1=O (stereo partly drawn) [Example 22, 2-((R)-6-(3-bromo-2,6-difluorophenyl)-3-thioxo-2,5,6,7-tetrahydro-3H-pyrrolo[1,2-c]imidazol-1-yl)-N-(2-oxotetrahydrofuran-3-yl)acetamide] was run?
Answer: 45.1 % of control

Question: And the “Plasma (1 μM), activity in % of control” value?
Answer: 4.4 % of control

Question: How did the “Plasma (0.01 μM), activity in % of control” value (inhibitor 0.01 μM) turn out when Cn1c(CC(=O)N2CCC(CF)C2)c2n(c1=S)C[C@H](c1c(F)ccc(Br)c1F)C2 (stereo partly drawn) [Example 458, 2-((S)-6-(3-bromo-2,6-difluorophenyl)-2-methyl-3-thioxo-2,5,6,7-tetrahydro-3H-pyrrolo[1,2-c]imidazol-1-yl)-1-(3-(fluoromethyl)pyrrolidin-1-yl)ethan-1-one] was run?
Answer: 58.5 % of control

Question: What about the “Plasma (0.1 μM), activity in % of control” value (inhibitor 0.1 μM) of the same compound?
Answer: 12.2 % of control

Question: What does the source list for O=C(Cc1[nH]c(=S)n2c1C[C@@H](c1c(F)ccc(Br)c1F)C2)NCC1CC1 [Example 95, (S)-2-(6-(3-bromo-2,6-difluorophenyl)-3-thioxo-2,5,6,7-tetrahydro-3H-pyrrolo[1,2-c]imidazol-1-yl)-N-(cyclopropylmethyl)acetamide]?
Answer: Plasma (0.1 μM), activity in % of control (inhibitor 0.1 μM): 24.0 % of control; Plasma (1 μM), activity in % of control: 0 % of control
